Results published in US9011839B2, “Anti-inflammatory and anti-vaginitis food composition and pharmaceutical composition containing Lactobacillus” (Glac Biotech Co., Ltd., priority 2010, dated 2015).

Tests used:
vaginitis patients = conditions: Barrons et al (2008); tampons, 4-8 weeks; cited from earlier work
human dendritic cells [1] = test: Inhibition of TNF-α secretion using an in vitro assay platform of dendritic cells; format: cell-based; conditions: human dendritic cells co-cultured 48 hours with heated LAB (1:10); supernatant ELISA; Mean±SD
Method: A. Inhibition of TNF-α Secretion Using an In Vitro Assay Platform of Dendritic Cells.
(§1) The inhibition assay for Th17 immune response is implemented by measuring TNF-α secretion after co-culture with the above-mentioned lactic acid bacteria. The assay procedures are listed as followings: • 1. 200 mL human blood are obtained from healthy donors. • 2. 1:1 blood isolates (Ficoll-paque) and blood are centrifuged at 400 g in 18-20° C. for 30-40 min. • 3. Cells obtained from human PBMC (Peripheral Blood Mononuclear Cell) layer are washed with buffer solution 2-3 times and suspended with appropriate culture medium such as RPMI-1640. • 4. CD14^+ monocytes are purified from PBMC cells by using CD14^+ microbeads (MiniMACS system). • 5. Cells are differentiated into dendritic cells after incubating for 6-7 days by stimulating with IL-4 and GM-CSF and differentiated dendritic cells are then collected. • 6. The lactic acid bacteria strain is activated 3 days before co-culture and is then heated for thermal death at 100° C. for 30 min. • 7. The dendritic cells and the heated lactic acid bacteria strain (1:10) are co-cultured for 48 hours. • 8. The supernatant of the cell culture medium is collected and used for measuring TNF-α amount by using ELISA (enzyme-linked-immunosorbent serologic assay).
The statistic results (Mean±SD) of data are analyzed in Table 3. […]

human dendritic cells [2] = test: Stimulation of IL-10 secretion using an in vitro assay platform of dendritic cells; format: cell-based; conditions: human dendritic cells co-cultured 48 hours with heated LAB (1:10); supernatant ELISA; Mean±SD
Method: B. Stimulation of IL-10 Secretion Using an In Vitro Assay Platform of Dendritic Cells.
as §1, with “In order to measure the increased amount of IL-10 secretion, human dendritic cells and” for “The inhibition assay for Th17 immune response is implemented by measuring TNF-α secretion after co-culture with”, “bacteria are co-cultured and the secretion of IL-10 is then measured so as to determine the promoting effect on inhibiting inflammatory cells from secreting cytokine.” for “bacteria.”, “donors;” for “donors.”, “The supernatant of the cell culture medium is collected and used for measuring TNF-α amount by using ELISA (enzyme-linked-immunosorbent serologic assay).” left out
The statistic results (Mean±SD) of data are analyzed in Table 4. […]

For `CC(=O)O` [acetic acid], the “vaginitis patients revealing improvement” value (vaginitis patients) is listed as 38%.
For Lipopolysaccharide [LPS], the “TNF-α Secretion” value (human dendritic cells [1]) was 1521 ± 37 pg/mL.
For Phytohemagglutinin [PHA], the “IL-10 Secretion” value (human dendritic cells [2]) was 9145 ± 118 pg/mL.
